Literature values, collected in article PMC13500670, “The U1 snRNP protein U1C and Helix H of U1 snRNA are critical for small molecule splicing modulator function” (Nature Communications, 2026).

Molecular target: short RNA duplex of 5' ss (11 nt) and U1 snRNA (11 nt)
Details: NMR construct without other U1 snRNP components; read-out: Kd between the compound and the short RNA duplex; cited from earlier work

Cc1cn2cc(-c3cc(=O)n4cc(N5CCN(C)CC5)ccc4n3)cc(F)c2n1 [SMN-C5]
Kd: 28 µM
